Experimental findings from US20250230193A1, “CYCLIC COMPOUND HAVING SELECTIVE KRAS INHIBITORY EFFECT ON HRAS AND NRAS” (CHUGAI SEIYAKU KABUSHIKI KAISHA, priority 2022, published 2025) are described below.

Assay [1] addresses GDP-bound NRAS wild-type protein (Homo sapiens, UniProt P01111). The assay is described as follows: Binding to NRAS by surface plasmon resonance (SPR), Single Cycle Kinetics. Particulars: SPR. A general note: Surface plasmon resonance follows binding to a sensor surface in real time, without labels.
The target in assay [2] is GDP-bound HRAS wild-type protein (Homo sapiens, UniProt P01112). The assay is described as follows: Binding to HRAS by surface plasmon resonance (SPR), Single Cycle Kinetics. Particulars: SPR.
Chain of GDP-bound HRAS wild-type protein (P01112 whole entry): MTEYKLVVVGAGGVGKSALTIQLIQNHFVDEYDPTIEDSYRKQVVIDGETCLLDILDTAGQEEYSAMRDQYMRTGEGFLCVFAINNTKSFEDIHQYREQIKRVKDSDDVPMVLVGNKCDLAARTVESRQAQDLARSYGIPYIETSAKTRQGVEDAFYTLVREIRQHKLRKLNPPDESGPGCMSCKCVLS
The mark [3] stands for this setting: KD ratio, GDP-bound NRAS wild-type vs GDP-bound KRAS wild-type.
Where [4] appears, read: KD ratio, GDP-bound HRAS wild-type vs GDP-bound KRAS wild-type.

Each structure is given as a SMILES string. Where a SMILES comes first, the peptide text is derived from it. Bridges are numbered along the chain shown (N, C = ends). [ ]: non-standard residue; d: D form. The star is where a group is joined. hPhe(3-Cl-4-CF3) = N[C@@H](CCc1ccc(C(F)(F)F)c(Cl)c1)C(=O)O; NPrPhe(4-CF3) = CCCN[C@@H](Cc1ccc(C(F)(F)F)cc1)C(=O)O; NMeGly(cPent) = CN[C@H](C(=O)O)C1CCCC1; Hyp = O=C(O)[C@@H]1C[C@@H](O)CN1; NMeI = CC[C@H](C)[C@H](NC)C(=O)O; NMeD = CN[C@@H](CC(=O)O)C(=O)O; NMeL = CN[C@@H](CC(C)C)C(=O)O; Morpholide = C1CN(*)CCO1; NMeA = CN[C@@H](C)C(=O)O; Ac5c = NC1(C(=O)O)CCCC1; Aze = O=C(O)[C@@H]1CCN1; Ac4c = NC1(C(=O)O)CCC1; NEtG = CCNCC(=O)O; Sar = CNCC(=O)O

Chain of GDP-bound NRAS wild-type protein (P01111 whole entry): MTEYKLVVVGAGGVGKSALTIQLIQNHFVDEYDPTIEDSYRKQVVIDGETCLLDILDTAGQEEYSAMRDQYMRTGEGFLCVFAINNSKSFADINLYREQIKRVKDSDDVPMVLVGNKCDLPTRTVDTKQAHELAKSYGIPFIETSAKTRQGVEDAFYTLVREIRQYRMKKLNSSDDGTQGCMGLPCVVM

`CCCN1C(=O)CN(C)C(=O)[C@@H]2CCN2C(=O)[C@H]([C@@H](C)CC)NC(=O)[C@H](CC(C)C)N(C)C(=O)C[C@@H](C(=O)N2CCOCC2)NC(=O)[C@H](C2CCCC2)N(C)C(=O)C2(CCC2)NC(=O)[C@@H]2C[C@@H](OCC)CN2C(=O)[C@H](CCc2ccc(C(F)(F)F)c(Cl)c2)NC(=O)CN(C)C(=O)[C@@H]1Cc1ccc(C(F)(F)F)cc1` [PP0342] ([NMeL]I[Aze][Sar][NPrPhe(4-CF3)][Sar][hPhe(3-Cl-4-CF3)][Hyp](Et)[Ac4c][NMeGly(cPent)]D-Morpholide; lactam N-11): the “NRAS/KRAS (ratio of KD for GDP-bound NRAS wild-type to KD for KRAS)” value in assay [1] (KD ratio NRAS/KRAS) is “B (a compound having 3 or more and less than 10 is denoted as B)”. Also, in assay [2] (KD ratio HRAS/KRAS), the “HRAS/KRAS (ratio of KD for GDP-bound HRAS wild-type to KD for KRAS)” value was “B (a compound having 3 or more and less than 10 is denoted as B)”.
As to `CCO[C@@H]1C[C@H]2C(=O)NC3(CCC3)C(=O)N(C)[C@@H](C3CCCC3)C(=O)N(C)[C@H](C(=O)N(C)C)CC(=O)N(C)[C@@H](CC)C(=O)N[C@@H]([C@@H](C)CC)C(=O)N(C)CC(=O)N(C)[C@H]3CC(C)=C(C)CN(C3=O)[C@@H](Cc3ccc(C(F)(F)F)cc3)C(=O)N(C)CC(=O)N[C@@H](CCc3cc(F)c(C(F)(F)F)c(F)c3)C(=O)N2C1` [PP1048], the “NRAS/KRAS (ratio of KD value with respect to NRAS to KD value with respect to KRAS)” value in assay [1] (setting [3]) was “C (A compound having a KD ratio of 0.1 or more and less than 3 is denoted as C)”. For the same compound, the “HRAS/KRAS (ratio of KD value with respect to HRAS to KD value with respect to KRAS)” value in assay [2] (setting [4]) is “C (A compound having a KD ratio of 0.1 or more and less than 3 is denoted as C)”.
`CCCN1C(=O)[C@@H]2CCN2C(=O)[C@H](C)N(C)C(=O)[C@H]([C@@H](C)CC)NC(=O)[C@H](CC(C)C)N(C)C(=O)C[C@@H](C(=O)N(C)C)NC(=O)[C@H](C2CCCC2)N(C)C(=O)C2(CCCC2)NC(=O)[C@@H]2CCCN2C(=O)[C@H](CCc2ccc(C(F)(F)F)c(Cl)c2)NC(=O)CN(C)C(=O)[C@@H]1Cc1ccc(C(F)(F)F)cc1` [PP0379] ([NMeL]I[NMeA][Aze][NPrPhe(4-CF3)][Sar][hPhe(3-Cl-4-CF3)]P[Ac5c][NMeGly(cPent)]D-NMe2; lactam N-11): in assay [1] (KD ratio NRAS/KRAS), the “NRAS/KRAS (ratio of KD for GDP-bound NRAS wild-type to KD for KRAS)” value is “C (A compound having a KD ratio of 0.1 or more and less than 3 is denoted as C)”. Besides, the “HRAS/KRAS (ratio of KD for GDP-bound HRAS wild-type to KD for KRAS)” value in assay [2] (KD ratio HRAS/KRAS) was “B (a compound having 3 or more and less than 10 is denoted as B)”.
As to `CCCN1C(=O)CN(C)C(=O)CN(CC)C(=O)[C@H]([C@@H](C)CC)NC(=O)[C@H](CC(C)C)N(C)C(=O)C[C@@H](C(=O)N(C)C)N(C)C(=O)[C@H](C2CCCC2)N(C)C(=O)C2(CCC2)NC(=O)[C@@H]2CCCN2C(=O)[C@H](CCc2ccc(C(F)(F)F)c(Cl)c2)NC(=O)CN(C)C(=O)[C@@H]1Cc1ccc(C(F)(F)F)cc1` [PP0424] ([NMeL]I[NEtG][Sar][NPrPhe(4-CF3)][Sar][hPhe(3-Cl-4-CF3)]P[Ac4c][NMeGly(cPent)][NMeD]-NMe2; lactam N-11), the “NRAS/KRAS (ratio of KD value with respect to GDP-bound NRAS wild-type protein to KD value with respect to KRAS)” value in assay [1] (KD ratio NRAS/KRAS) was “B (a compound having 3 or more and less than 10 is denoted as B)”. Further, the “HRAS/KRAS (ratio of KD value with respect to GDP-bound HRAS wild-type protein to KD value with respect to KRAS)” value in assay [2] (KD ratio HRAS/KRAS) is “C (A compound having a KD ratio of 0.1 or more and less than 3 is denoted as C)”.
`CCO[C@@H]1C[C@H]2C(=O)NC3(CCC3)C(=O)N(C)[C@@H](C3CCCC3)C(=O)N(CC)[C@H](C(=O)N3CCOCC3)CC(=O)N(C)[C@@H](Cc3ccccc3)C(=O)N[C@@H]([C@@H](C)CC)C(=O)N(C)CC(=O)N(C)[C@H]3CCCCCN(C3=O)[C@@H](Cc3ccc(C(F)(F)F)cc3)C(=O)N(C)CC(=O)N[C@@H](CCc3cc(F)c(C(F)(F)F)c(F)c3)C(=O)N2C1` [PP0950]: the “NRAS/KRAS (ratio of KD value with respect to NRAS to KD value with respect to KRAS)” value in assay [1] (setting [3]) is “A (a compound having 10 or more and less than 20 is denoted as A)”. Moreover, in assay [2] (setting [4]), the “HRAS/KRAS (ratio of KD value with respect to HRAS to KD value with respect to KRAS)” value is “B (a compound having 3 or more and less than 10 is denoted as B)”.
Regarding `CC[C@@H]1C[C@H]2C(=O)NC3(CCCC3)C(=O)N(C)[C@@H](C3CCCC3)C(=O)N(C)[C@H](C(=O)N(C)C)CC(=O)N(C)[C@@H](CC(C)C)C(=O)N[C@@H]([C@@H](C)CC)C(=O)N(C)CC(=O)N(C)[C@H]3C/C=C\CCN(C3=O)[C@@H](Cc3ccc(C)cc3)C(=O)N(C)CC(=O)N[C@@H](CCc3cc(F)c(C(F)(F)F)c(F)c3)C(=O)N2C1` [PP2191], the “NRAS/KRAS (ratio of KD value with respect to NRAS to KD value with respect to KRAS)” value in assay [1] (GDP-bound NRAS wild-type vs GDP-bound KRAS wild-type) was “A (a compound having 10 or more and less than 20 is denoted as A)”. In addition, in assay [2] (GDP-bound HRAS wild-type vs GDP-bound KRAS wild-type), the “HRAS/KRAS (ratio of KD value with respect to HRAS to KD value with respect to KRAS)” value was “B (a compound having 3 or more and less than 10 is denoted as B)”.
With `CCO[C@@H]1C[C@H]2C(=O)NC3(CCC3)C(=O)N(C)[C@@H](C3CCCC3)C(=O)N(C)[C@H](C(=O)N(C)C)CC(=O)N(C)[C@@H](CC)C(=O)N[C@@H]([C@@H](C)CC)C(=O)N(C)CC(=O)N(C)[C@H]3CCCCCN(C3=O)[C@@H](Cc3ccc(C(F)(F)F)cc3)C(=O)N(C)CC(=O)N[C@@H](CCc3cc(Cl)c(C(F)(F)F)c(Cl)c3)C(=O)N2C1` [PP0989], in assay [1] (setting [3]), the “NRAS/KRAS (ratio of KD value with respect to NRAS to KD value with respect to KRAS)” value was “B (a compound having 3 or more and less than 10 is denoted as B)”. Also, in assay [2] (setting [4]), the “HRAS/KRAS (ratio of KD value with respect to HRAS to KD value with respect to KRAS)” value is “B (a compound having 3 or more and less than 10 is denoted as B)”.
As for `CCCN1C(=O)CN(C)C(=O)CN(C)C(=O)[C@H]([C@@H](C)CC)NC(=O)[C@H](CC(C)C)N(C)C(=O)C[C@@H](C(=O)N2CCOCC2)N(C)C(=O)[C@H]([C@@H](C)CC)N(C)C(=O)C2(CCCC2)NC(=O)[C@@H]2CCCN2C(=O)[C@H](CCc2ccc(C(F)(F)F)c(Cl)c2)NC(=O)CN(C)C(=O)[C@@H]1Cc1ccc(C(F)(F)F)cc1` [PP1926] ([NMeL]I[Sar][Sar][NPrPhe(4-CF3)][Sar][hPhe(3-Cl-4-CF3)]P[Ac5c][NMeI][NMeD]-Morpholide; lactam N-11), in assay [1] (setting [3]), the “NRAS/KRAS (ratio of KD value for NRAS to KD value for KRAS)” value is “B (a compound having 3 or more and less than 10 is denoted as B)”. Moreover, the “HRAS/KRAS (ratio of KD value for HRAS to KD value for KRAS)” value in assay [2] (setting [4]) was “B (a compound having 3 or more and less than 10 is denoted as B)”.
Consider `CCO[C@@H]1C[C@H]2C(=O)NC3(CCC3)C(=O)N(C)[C@@H](C3CCCC3)C(=O)N(C)[C@H](C(=O)N3CCOCC3)CC(=O)N(C)[C@@H](COCC(F)(F)F)C(=O)N[C@@H]([C@@H](C)CC)C(=O)N(C)CC(=O)N(C)[C@H]3CCCCCN(C3=O)[C@@H](Cc3ccc(C(F)(F)F)cc3)C(=O)N(C)CC(=O)N[C@@H](CCc3cc(F)c(C(F)(F)F)c(F)c3)C(=O)N2C1` [PP0853], for which, in assay [1] (setting [3]), the “NRAS/KRAS (ratio of KD value with respect to NRAS to KD value with respect to KRAS)” value was “B (a compound having 3 or more and less than 10 is denoted as B)”. Besides, the “HRAS/KRAS (ratio of KD value with respect to HRAS to KD value with respect to KRAS)” value in assay [2] (setting [4]) is “B (a compound having 3 or more and less than 10 is denoted as B)”.
In the case of `CCCN1C(=O)CN(C)C(=O)CN(CC)C(=O)[C@H]([C@@H](C)CC)NC(=O)[C@H](CC(C)C)N(C)C(=O)C[C@@H](C(=O)N2CCOCC2)N(C)C(=O)[C@H](C2CCCC2)N(C)C(=O)C2(CCCC2)NC(=O)[C@@H]2CCN2C(=O)[C@H](CCc2ccc(C(F)(F)F)c(Cl)c2)NC(=O)CN(C)C(=O)[C@@H]1Cc1ccc(C(F)(F)F)cc1` [PP0294] ([NMeL]I[NEtG][Sar][NPrPhe(4-CF3)][Sar][hPhe(3-Cl-4-CF3)][Aze][Ac5c][NMeGly(cPent)][NMeD]-Morpholide; lactam N-11), the “NRAS/KRAS (ratio of KD for GDP-bound NRAS wild-type to KD for KRAS)” value in assay [1] (KD ratio NRAS/KRAS) was “B (a compound having 3 or more and less than 10 is denoted as B)”. In assay [2] (KD ratio HRAS/KRAS), the “HRAS/KRAS (ratio of KD for GDP-bound HRAS wild-type to KD for KRAS)” value was “C (A compound having a KD ratio of 0.1 or more and less than 3 is denoted as C)”.
